Assay results reported in patent publication US12410220B2, “Modulation of mammalian cell lineage by synthetic immodulins” (priority 2021, dated 2025).
Marks after values point to notes of the source that are not given here. Peptide text beside a SMILES is read from it.

Assays:
[1] = target: T1, AA111-228 DNA-binding domain of RXR-alpha (RXRa-DBD) (Homo sapiens, UniProt P19793); assay: Experiment 4A binding to RXRa-DBD; conditions: 1 ug/well RXRa-DBD; 800 ng/well SA488-labelled peptide, 60 min; background subtracted
T1 construct: purchased Abcam, Cambridge, MA
T1 sequence (P19793 111-228): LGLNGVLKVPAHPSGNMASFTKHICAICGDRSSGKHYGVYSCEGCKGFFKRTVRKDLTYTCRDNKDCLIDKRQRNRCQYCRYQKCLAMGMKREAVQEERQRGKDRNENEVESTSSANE
Method: Experiment 4A. Binding of immodulin peptides to AA111-228 DNA-binding domain of RXR-alpha (RXRa-DBD). 1 ug/well recombinant RXRa-DBD (Abcam, Cambridge, MA) was adsorbed to wells of a 96-well plate for 60 minutes at room temperature, then blocked with 200 uL 1% bovine serum albumin (BSA) in PBS buffer overnight. Plate was washed and 800 ng/well Streptavidin-Alexa 488 conjugate (SA488)-labelled immX peptide was added. The plate was incubated for 60 min at room temperature, washed and counted in a standard fluorometer (excitation/emission 485/525 nm). Background (buffer alone) was subtracted.

RXR-alpha = target: T2, RXR-alpha (Homo sapiens, UniProt P19793); assay: Experiment 4B binding to full length RXR-alpha; conditions: 400 ng/well protein; 800 ng/well SA488-labelled peptide, 2 hours
T2 construct: 400 ng/well full length RXR-alpha, RXR-beta, RXR-gamma or PPAR-gamma; purchased Abcam, Cambridge, MA
T2 sequence (P19793 1-462): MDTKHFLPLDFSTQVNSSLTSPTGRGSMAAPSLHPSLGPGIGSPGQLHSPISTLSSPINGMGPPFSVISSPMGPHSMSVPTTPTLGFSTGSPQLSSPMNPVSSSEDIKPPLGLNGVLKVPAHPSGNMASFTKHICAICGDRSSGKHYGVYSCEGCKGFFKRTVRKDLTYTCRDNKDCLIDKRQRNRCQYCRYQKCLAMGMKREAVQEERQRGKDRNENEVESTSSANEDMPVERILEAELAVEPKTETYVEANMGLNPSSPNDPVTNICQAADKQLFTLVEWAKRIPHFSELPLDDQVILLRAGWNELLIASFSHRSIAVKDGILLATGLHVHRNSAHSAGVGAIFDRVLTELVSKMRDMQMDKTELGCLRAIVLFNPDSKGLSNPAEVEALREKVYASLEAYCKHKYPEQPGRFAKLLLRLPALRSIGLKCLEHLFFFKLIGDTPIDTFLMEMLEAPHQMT
Method: (§1) Experiment 4B. Binding of immodulin peptides to RXR isoforms and domains. 100 ng/well recombinant human RXRa-DBD or RXRa-LBD, or 400 ng/well full length RXR-alpha, RXR-beta, RXR-gamma or PPAR-gamma (Abcam, Cambridge, MA) was adsorbed to wells of a 96-well plate for 60 minutes at room temperature, then blocked with 200 uL 1% BSA in PBS buffer overnight. The plate was washed with PBS and 800 ng/well Streptavidin-Alexa 488 conjugate (SA488)-labelled peptide was added. The plate was incubated for 2 hours at room temperature, washed and counted in a fluorometer (excitation/emission 485/525 nm). Significant binding above background is also shown (**p<0.05). […] When tested against domains of RXR-alpha, these peptides bind the DNA-binding domain (DBD) better than the ligand-binding domain (LBD).

PPAR-gamma = target: T3, PPAR-gamma (Homo sapiens, UniProt P37231); assay: Experiment 4B binding to full length PPAR-gamma; conditions: 400 ng/well protein; 800 ng/well SA488-labelled peptide, 2 hours
T3 construct: 400 ng/well full length RXR-alpha, RXR-beta, RXR-gamma or PPAR-gamma; purchased Abcam, Cambridge, MA
T3 sequence (P37231 1-505): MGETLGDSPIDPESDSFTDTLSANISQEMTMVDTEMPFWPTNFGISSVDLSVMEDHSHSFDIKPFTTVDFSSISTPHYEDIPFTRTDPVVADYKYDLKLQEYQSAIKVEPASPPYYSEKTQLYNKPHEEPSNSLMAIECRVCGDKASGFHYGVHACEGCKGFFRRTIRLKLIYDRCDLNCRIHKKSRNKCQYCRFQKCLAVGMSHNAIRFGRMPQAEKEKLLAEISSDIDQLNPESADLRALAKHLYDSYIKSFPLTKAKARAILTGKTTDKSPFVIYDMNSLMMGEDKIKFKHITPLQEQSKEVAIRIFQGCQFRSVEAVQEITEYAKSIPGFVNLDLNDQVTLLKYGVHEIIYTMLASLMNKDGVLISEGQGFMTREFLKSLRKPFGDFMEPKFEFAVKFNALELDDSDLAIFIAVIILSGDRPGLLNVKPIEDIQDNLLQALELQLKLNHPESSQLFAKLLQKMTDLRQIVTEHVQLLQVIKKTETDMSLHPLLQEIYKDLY
Method: as §1

RXR-alpha DBD = target: T4, RXR-alpha DBD (Homo sapiens, UniProt P19793); assay: Experiment 4B binding to RXR-alpha DBD; conditions: 100 ng/well protein; 800 ng/well SA488-labelled peptide, 2 hours
T4 construct: purchased Abcam, Cambridge, MA
T4 sequence (P19793 111-228): T1 sequence (P19793 111-228)
Method: as §1

[2] = Experiment 4D binding to FITC-labelled heparin; conditions: biotinylated peptide 1 ug/well; 1 ug FITC-labelled heparin, 90 minutes
Outline: (§2)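 Biotinylated peptides (1 ug/well) bound to streptavidin plates for 60 min at room temperature, then 1 ug FITC-labelled heparin or hyaluronic acid in PBS added for 90 min at room temperature, in quadruplicate. After washes, fluorescence read at 488/525 nm and counts normalized to immX3 peptide binding = 100.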

[3] = Experiment 4D binding to FITC-labelled hyaluronic acid; conditions: biotinylated peptide 1 ug/well; 1 ug FITC-labelled hyaluronic acid, 90 minutes
Outline: as §2

[4] = system: HFF-1 human fibroblast cell line; assay: Collagen-1 ELISA in HFF-1 dermal fibroblasts; assay type: cell-based; conditions: peptide 2 uM, 72 hour incubation
Method: Immodulin peptides have potential untility in the field of cosmetics. HFF-1 human fibroblast cell line was obtained from the American Type Culture Collection (ATCC). Cells were grown in a T-75 flask in DMEM Medium containing 10% fetal bovine serum and penicillin-streptomycin at 37° C. in a humidified, 5% CO2 incubator. Cells (100 µl, 2,000 cells/well) were plated in a 96-well plate and incubated overnight at 37° C. in a humidified, 5% CO2 incubator. Next day, 10 µl/well of compounds were added (quadruplicate wells). After 72 hour incubation with the compound, supernatants were collected for Collagen-1 ELISA assay and cell viability was measured in a luminometer after the addition of 100 IL/well CellTiterGlo reagent (Promega Inc, Madison, WI) as recommended by the manufacturer. Collagen stimulating activity of immodulin peptides in HFF-1 dermal fibroblasts: Peptides were added to cells at 2 uM. COL1 immunoreactivity was measured in the supernatants of cultured cells by ELISA using a rabbit monoclonal anti-COL1 primary antibody (Abcam, Cambridge, MA). Control (buffer) value of immunoreactivity was set to 100.

| Fluorescence, binding to RXRa-DBD [1] | Binding to RXR-alpha relative to imm3 binding to RXR-gamma (=100) (RXR-alpha) | Binding to PPAR-gamma relative to imm3 binding (=100) (PPAR-gamma) | Binding to RXR-alpha DBD relative to imm3 binding (=100) (RXR-alpha DBD) | Heparin binding, counts normalized for immX3 peptide binding=100 [2] | Hyaluronate binding, counts normalized for immX3 peptide binding=100 [3] | SMILES | COL1 immunoreactivity in supernatants, control (buffer) set to 100 [4] |
| --- | --- | --- | --- | --- | --- | --- | --- |
| 27±31 | 3.6 ± 1.3 | 0.1 ± 0.0 | 3.2 ± 2.0 | 6.8 ± 24.1 | 14.6 ± 22.6 | CC(C)C[C@H](NC(=O)[C@H](C)NC(=O)[C@@H]1CCCN1C(=O)[C@H](Cc1c[nH]cn1)NC(=O)[C@H](CS)NC(=O)[C@H](CCC(N)=O)NC(=O)[C@H](CCCCN)NC(=O)[C@@H]1CCCN1C(=O)[C@H](Cc1c[nH]cn1)NC(=O)[C@H](Cc1ccccc1)NC(=O)[C@H](CC(N)=O)NC(=O)CNC(=O)[C@H](CC(N)=O)NC(=O)[C@@H](N)CCCNC(=N)N)C(=O)N[C@@H](CC(=O)O)C(=O)NCC(=O)N[C@@H](CCC(N)=O)C(=O)N[C@@H](CCCNC(=N)N)C(=O)NCC(=O)N[C@@H](CCCCN)C(=O)N[C@@H](CS)C(=O)N[C@@H](Cc1c[nH]c2ccccc12)C(=O)O [imm4] (H-RNGNFHPKQCHPALDGQRGKCW-OH; N-terminus and C-terminus assumed) | 105 |
| 6,802±336 | 17.2 ± 0.3** | 1.6 ± 0.4 | 22.7 ± 3.1** | 95.1 ± 25.7 | 60.0 ± 8.6** | CC[C@H](C)[C@H](NC(=O)CNC(=O)[C@H](CCCNC(=N)N)NC(=O)[C@H](CCCCN)NC(=O)[C@H](CCCNC(=N)N)NC(=O)CNC(=O)[C@H](CCCNC(=N)N)NC(=O)[C@H](CO)NC(=O)[C@@H]1CCCN1C(=O)[C@H](CCCCN)NC(=O)[C@H](CS)NC(=O)[C@H](CCC(N)=O)NC(=O)[C@H](CCCCN)NC(=O)[C@H](CCCNC(=N)N)NC(=O)[C@H](CCCCN)NC(=O)[C@H](Cc1ccc(O)cc1)NC(=O)[C@H](Cc1ccccc1)NC(=O)CNC(=O)[C@H](CCCCN)NC(=O)[C@@H](N)CCCNC(=N)N)C(=O)N[C@@H](CS)C(=O)N[C@@H](Cc1c[nH]c2ccccc12)C(=O)O [imm5] (H-RKGFYKRKQCKPSRGRKRGICW-OH; N-terminus and C-terminus assumed) | 93 |
| 6,572±129 | 11.2 ± 1.0** | 2.1 ± 1.4 | 22.2 ± 2.4** | 104.2 ± 22.0 | 57.2 ± 5.7** | N=C(N)NCCC[C@H](NC(=O)CNC(=O)[C@H](CCCCN)NC(=O)[C@H](CO)NC(=O)[C@@H]1CCCN1C(=O)[C@H](CCCNC(=N)N)NC(=O)[C@H](CS)NC(=O)[C@H](CCC(N)=O)NC(=O)[C@H](CCCCN)NC(=O)[C@H](CCCCN)NC(=O)[C@H](CCCCN)NC(=O)[C@H](Cc1ccc(O)cc1)NC(=O)[C@H](Cc1ccccc1)NC(=O)CNC(=O)[C@H](CCCCN)NC(=O)[C@@H](N)CCCCN)C(=O)N[C@@H](CCCCN)C(=O)N[C@@H](CCCNC(=N)N)C(=O)NCC(=O)N[C@@H](Cc1ccccc1)C(=O)N[C@@H](CS)C(=O)N[C@@H](Cc1c[nH]c2ccccc12)C(=O)O [imm3] (H-KKGFYKKKQCRPSKGRKRGFCW-OH; N-terminus and C-terminus assumed) | 101 |
| 587±192 | 12.9 ± 0.5** | 6.8 ± 2.0 | 22.9 ± 2.1** | 97.2 ± 17.3 | 44.9 ± 14.1** | N=C(N)NCCC[C@H](NC(=O)[C@H](CCCNC(=N)N)NC(=O)[C@H](CCC(N)=O)NC(=O)CNC(=O)[C@H](CCC(N)=O)NC(=O)[C@H](CO)NC(=O)[C@H](CO)NC(=O)[C@H](CCCNC(=N)N)NC(=O)[C@H](CS)NC(=O)[C@H](CCC(N)=O)NC(=O)[C@H](CCCNC(=N)N)NC(=O)[C@H](CCCCN)NC(=O)[C@H](CCCNC(=N)N)NC(=O)[C@H](Cc1ccc(O)cc1)NC(=O)[C@H](Cc1ccccc1)NC(=O)CNC(=O)[C@H](CCCNC(=N)N)NC(=O)[C@@H](N)Cc1c[nH]cn1)C(=O)NCC(=O)N1CCC[C@H]1C(=O)N[C@@H](CS)C(=O)N[C@@H](Cc1c[nH]c2ccccc12)C(=O)O [imm6] (H-HRGFYRKRQCRSSQGQRRGPCW-OH; N-terminus and C-terminus assumed) | 112 |
